{"source": "DBAASP", "assay_in_all_cases": "≥ marks a high value that may be exact or a test limit, other limits are often not marked, values filed in µg/mL are converted to µM", "key": {"[1]": {"test_system": "Acinetobacter baumannii ATCC 19606"}, "Acinetobacter baumannii": {"test_system": "Acinetobacter baumannii"}, "[2]": {"test_system": "Bacillus subtilis CCT 2471"}, "Bacillus subtilis DELTA": {"test_system": "Bacillus subtilis DELTA"}, "Bacillus thuringiensis": {"test_system": "Bacillus thuringiensis"}, "[3]": {"test_system": "Candida albicans ATCC 10231"}, "[4]": {"test_system": "Candida albicans ATCC 200955"}, "Candida parapsilosis": {"test_system": "Candida parapsilosis"}, "[5]": {"test_system": "Enterobacter cloacae ATCC 23355"}, "[6]": {"test_system": "Enterococcus faecium ATCC 700221"}, "Escherichia coli 780": {"test_system": "Escherichia coli 780"}, "Escherichia coli 804": {"test_system": "Escherichia coli 804"}, "Escherichia coli 850": {"test_system": "Escherichia coli 850"}, "[7]": {"test_system": "Escherichia coli ATCC 8739"}, "[8]": {"test_system": "Escherichia coli CCT 1371"}, "[9]": {"test_system": "Escherichia coli DH5alpha"}, "Escherichia coli DL7": {"test_system": "Escherichia coli DL7"}, "Escherichia coli MG1655": {"test_system": "Escherichia coli MG1655"}, "Escherichia coli ML-35": {"test_system": "Escherichia coli ML-35"}, "[10]": {"test_system": "Klebsiella aerogenes ATCC 13048"}, "[11]": {"test_system": "Klebsiella pneumoniae ATCC 700603"}, "Proteus mirabilis": {"test_system": "Proteus mirabilis"}, "[12]": {"test_system": "Pseudomonas aeruginosa 119"}, "[13]": {"test_system": "Pseudomonas aeruginosa 124"}, "[14]": {"test_system": "Pseudomonas aeruginosa 86"}, "[15]": {"test_system": "Pseudomonas aeruginosa PAO1"}, "Pseudomonas aeruginosa": {"test_system": "Pseudomonas aeruginosa"}, "[16]": {"test_system": "Staphylococcus aureus 936"}, "[17]": {"test_system": "Staphylococcus aureus ATCC 33591"}, "[18]": {"test_system": "Staphylococcus aureus ATCC 6538"}, "Staphylococcus aureus MR": {"test_system": "Staphylococcus aureus MR"}, "[19]": {"test_system": "Staphylococcus epidermidis ATCC 12228"}, "[20]": {"test_system": "Staphylococcus saprophyticus"}, "[21]": {"test_system": "Zymomonas mobilis ATCC 10988"}}, "note": "Several values for one entry are separate records, joined by “and”; a condition that tells them apart may be missing. Equal entries are not always repeated."}
{"smiles": "CC[C@H](C)[C@H](NC(=O)[C@H](CCCN=C(N)N)NC(=O)[C@H](CCCCN)NC(=O)[C@H](CC(C)C)NC(=O)[C@H](CC(C)C)NC(=O)CN)C(=O)N[C@@H](CCCCN)C(=O)N[C@H](C(=O)N[C@@H](CC(C)C)C(=O)N[C@@H](CC(C)C)C(N)=O)[C@@H](C)O", "note": "[GLLKRIKTLL]", "values": [{"measurement": "MIC", "setting": "[1]", "value": 64, "unit": "µM"}, {"measurement": "MIC", "setting": "Acinetobacter baumannii", "value": 16, "unit": "µM"}, {"measurement": "MIC", "setting": "[2]", "value": 17.3, "unit": "µM"}, {"measurement": "MIC", "setting": "Bacillus subtilis DELTA", "value": "≥ 173", "unit": "µM"}, {"measurement": "MIC", "setting": "Bacillus thuringiensis", "value": "≥ 173", "unit": "µM"}, {"measurement": "MIC", "setting": "[3]", "value": 16.9, "unit": "µM"}, {"measurement": "MIC", "setting": "[4]", "value": "≥ 171", "unit": "µM"}, {"measurement": "MIC", "setting": "Candida parapsilosis", "value": "≥ 43.3", "unit": "µM"}, {"measurement": "MIC", "setting": "[5]", "value": "≥ 173", "unit": "µM"}, {"measurement": "MIC", "setting": "[6]", "value": "≥ 133", "unit": "µM"}, {"measurement": "MIC", "setting": "Escherichia coli 780", "value": 16, "unit": "µM"}, {"measurement": "MIC", "setting": "Escherichia coli 804", "value": "≥ 32", "unit": "µM"}, {"measurement": "MIC", "setting": "Escherichia coli 850", "value": "≥ 32", "unit": "µM"}, {"measurement": "MIC", "setting": "[7]", "value": "≥ 35.5", "unit": "µM"}, {"measurement": "MIC", "setting": "[8]", "value": "≥ 86.6", "unit": "µM"}, {"measurement": "MIC", "setting": "[9]", "value": "≥ 260", "unit": "µM"}, {"measurement": "MIC", "setting": "Escherichia coli DL7", "value": 16, "unit": "µM"}, {"measurement": "MIC", "setting": "Escherichia coli MG1655", "value": "≥ 32", "unit": "µM"}, {"measurement": "MIC", "setting": "Escherichia coli ML-35", "value": 8, "unit": "µM"}, {"measurement": "MIC", "setting": "[10]", "value": "≥ 32", "unit": "µM"}, {"measurement": "MIC", "setting": "[11]", "value": "64 µM and 128 µM"}, {"measurement": "MIC", "setting": "Proteus mirabilis", "value": "≥ 173", "unit": "µM"}, {"measurement": "MIC", "setting": "[12]", "value": 4, "unit": "µM"}, {"measurement": "MIC", "setting": "[13]", "value": "≥ 32", "unit": "µM"}, {"measurement": "MIC", "setting": "[14]", "value": 4, "unit": "µM"}, {"measurement": "MIC", "setting": "[15]", "value": 173, "unit": "µM"}, {"measurement": "MIC", "setting": "Pseudomonas aeruginosa", "value": 11.3, "unit": "µM"}, {"measurement": "MIC", "setting": "[16]", "value": "≥ 64", "unit": "µM"}, {"measurement": "MIC", "setting": "[17]", "value": "≥ 512", "unit": "µM"}, {"measurement": "MIC", "setting": "[18]", "value": "43.3 µM and 65 µM"}, {"measurement": "MIC", "setting": "Staphylococcus aureus MR", "value": "≥ 45.3", "unit": "µM"}, {"measurement": "MIC", "setting": "[19]", "value": 8, "unit": "µM"}, {"measurement": "MIC", "setting": "[20]", "value": 4.33, "unit": "µM"}, {"measurement": "MIC", "setting": "[21]", "value": "≥ 173", "unit": "µM"}]}
